The values that follow come from BindingDB's records for doi:10.1021/jm020865i (Departement D'Ingenierie Et D'Etudes Des Proteines, 2002).

*1 amine or outer side, *2 acyl side, *3 side chain or, on linkers, in order; H or OH if unused. Where a SMILES comes first, the peptide text is derived from it. The star is where a group is joined. pNA = O=[N+]([O-])c1ccc(N*)cc1; Suc = O=C(CCC(=O)[*:2])[*:1]

Assay [1] has as its target Peptidyl-prolyl cis-trans isomerase A, cyclophilin A (Homo sapiens) (UniProt P62937). Kind of assay: Inhibitory activity against Human Cyclophilin hCyp-18 Peptidyl-prolyl isomerase by using the standard trypsin-coupled PPIase (peptidyl-prolyl isomerases) assay.
Assay [2] has the same target. Kind of assay: The compound was evaluated for its binding affinity against Human Cyclophilin hCyp-18 Peptidyl-prolyl isomerase.
For assay [3] the target is unchanged. The assay is described as above. This is another data set of the same source.

Peptidyl-prolyl cis-trans isomerase A, cyclophilin A (Homo sapiens), sequence (P62937 whole entry, looked up): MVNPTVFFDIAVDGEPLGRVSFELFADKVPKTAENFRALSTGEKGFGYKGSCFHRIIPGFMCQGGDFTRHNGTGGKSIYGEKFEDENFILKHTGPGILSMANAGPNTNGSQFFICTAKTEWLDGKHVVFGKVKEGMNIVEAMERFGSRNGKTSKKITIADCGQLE

Usually IC50 stands for the concentration that inhibits the measured activity by half. In general, Kd refers to a measure of binding affinity in units of concentration. A higher Kd goes with weaker binding. In turn, `CC(=O)N[C@@H](C)C(=O)NCC(=O)C(=O)N1CCCC1C(=O)N[C@@H](Cc1ccccc1)C(=O)Nc1ccc([N+](=O)[O-])cc1` (some centres not stated) [1-[3-(2-Acetylamino-propionylamino)-2-oxo-propionyl]-pyrrolidine-2-carboxylic acid [1-(4-nitro-phenylcarbamoyl)-2-phenyl-ethyl]-amide] had an IC50 in assay [1] of 215 µM. In addition, binding in assay [2] was put at a Kd of 127 µM.
Take `CCOP(=O)(CNC(=O)[C@H](C)NC(C)=O)N1CCCC1C(=O)N[C@H](CNc1ccc([N+](=O)[O-])cc1)Cc1ccccc1` (some centres not stated) [[(2-Acetylamino-propionylamino)-methyl]-{2-[1-benzyl-2-(4-nitro-phenylamino)-ethylcarbamoyl]-pyrrolidin-1-yl}-phosphinic acid ethyl ester]: in assay [2], the affinity, expressed as Kd, was 200 µM.
The same measure, in the same setting: then `COC(=O)Cc1ccc(NC(=O)[C@H](Cc2ccccc2)NC(=O)C2CCCN2P(=O)(O)CNC(=O)[C@H](C)NC(C)=O)cc1` (some centres not stated) [[(2-Acetylamino-propionylamino)-methyl]-{2-[1-(4-methoxycarbonylmethyl-phenylcarbamoyl)-2-phenyl-ethylcarbamoyl]-pyrrolidin-1-yl}-phosphinic acid anion], with 79 µM.
The compound `CCOP(=O)(CNC(=O)[C@H](C)NC(=O)CCC(=O)O)N1CCCC1C(=O)N[C@@H](Cc1ccccc1)C(=O)Nc1ccc([N+](=O)[O-])cc1` (some centres not stated) [N-{1-[(Ethoxy-{2-[1-(4-nitro-phenylcarbamoyl)-2-phenyl-ethylcarbamoyl]-pyrrolidin-1-yl}-phosphinoylmethyl)-carbamoyl]-ethyl}-succinamic acid] yielded an IC50 in assay [1] of 15 µM. Besides, binding in assay [2] was put at a Kd of 20 µM.
`C[C@H](NC(=O)CCC(=O)O)C(=O)N[C@@H](C)C(=O)N1CCC[C@H]1C(=O)N[C@@H](Cc1ccccc1)C(=O)Nc1ccc([N+](=O)[O-])cc1` [N-[1-(1-Methyl-2-{2-[1-(4-nitro-phenylcarbamoyl)-2-phenyl-ethylcarbamoyl]-pyrrolidin-1-yl}-2-oxo-ethylcarbamoyl)-ethyl]-succinamic acid] (Suc-AAPF-pNA) came in with an IC50 in assay [1] of 540 µM. This compound also returned a Kd in assay [2] of 135 µM.
On the same counts, the results for `CC(=O)N[C@@H](C)C(=O)N[C@@H](C)C(=O)N1CCC[C@H]1C(=O)N[C@@H](Cc1ccccc1)C(=O)Nc1ccc([N+](=O)[O-])cc1` [1-[2-(2-Acetylamino-propionylamino)-propionyl]-pyrrolidine-2-carboxylic acid [1-(4-nitro-phenylcarbamoyl)-2-phenyl-ethyl]-amide] (Ac-AAPF-pNA) are 640 µM and 145 µM.
`C[C@H](NC(=O)CCC(=O)O)C(=O)NCC(=O)N1CCC[C@H]1C(=O)N[C@@H](Cc1ccccc1)C(=O)Nc1ccc([N+](=O)[O-])cc1` [N-[1-(2-{2-[1-(4-Nitro-phenylcarbamoyl)-2-phenyl-ethylcarbamoyl]-pyrrolidin-1-yl}-2-oxo-ethylcarbamoyl)-ethyl]-succinamic acid] (Suc-AGPF-pNA) came in with an IC50 in assay [1] of 1450 µM. For the same compound, in assay [3], binding was characterised by a dissociation constant (Kd) of 140 µM.
